Test results as given in US20040161426A1, “Use of IL-6 antagonists in combination with steroids to enhance apoptosis” (priority 2003, published 2004).

Experiments:
[1] = test system: RPMI 8226 cells; test: Dexamethasone-induced apoptosis, Tunel assay with flow cytometry; format: cell-based, human; conditions: for % Apoptosis Mean ± SEM: 48 h; for level of apoptosis (cells undergoing apoptosis): representative experiment
Protocol: The cell line RPMI 8226, a human multiple myeloma cell line, was purchased from ATCC (Rockville, Md.). Cells were grown and maintained according to ATCC instructions in complete RPMI medium containing 10% FBS, 1% NEAA, 1% L-glutamine and 1% sodium pyruvate.
Chimeric CLB8 (cCLB8) (Centocor, Malvern, Pa.) was used at three different concentrations in the assay. Another a chimeric human-mouse IgG, c171A, also developed at Centocor was used as a negative control antibody.
[…] After the incubation, cells were harvested and the Tunel assay (Tdt-mediated dUTP-FITC nick end labeling) as disclosed in Gavrieli et al., “Identification of Programmed Cell Death in situ Via Specific Labelling of Nuclear DNA Fragmentation”, […] 119:493-501, 1992 was used to measure apoptosis with minor modifications. Briefly, after the 48-hour incubation described above, approximately 10^6 cells were harvested, washed twice, and fixed with 1% paraformaldehyde for 15 minutes. After washing, the cells were permeabilized with 0.1% Triton (Sigma, St. Louis, Mo.) for 5 minutes and washed twice. The labeling reaction was performed in a heating block at 37° C. for 1 hour with 0.3 nM FITC-12-dUTP (Boehringer Mannheim, Indianapolis, Ind.), 2.5 mM CoCI2, 12.5 U Tdt, and 5 microL of 5×Tdt Buffer (Boehringer Mannheim) in a total volume of 50 microL. Cells were analyzed by flow cytometry.
After completing the Tunel assay, cells were washed twice and analyzed on a FACS Calibur flow cytometer (Becton Dickinson Immunocytometry Systems, San Jose, Calif.) equipped with a 15-mW air-cooled 488-nm argon laser. Gating to exclude debris was based upon diminished forward scatter (FSC) and side scatter (SSC). A minimum of 10,000 events was collected per sample and all analyses were performed with CELLQuest software (Becton Dickinson Immunocytometry Systems, San Jose, Calif.).

[2] = target: T1, IL-6 (Homo sapiens, UniProt P05231); conditions: multiple myeloma patients after cCLB8 administration; cited from earlier work
T1 construct: host or cells: patients (endogenous IL-6)
T1 sequence (P05231 30-212): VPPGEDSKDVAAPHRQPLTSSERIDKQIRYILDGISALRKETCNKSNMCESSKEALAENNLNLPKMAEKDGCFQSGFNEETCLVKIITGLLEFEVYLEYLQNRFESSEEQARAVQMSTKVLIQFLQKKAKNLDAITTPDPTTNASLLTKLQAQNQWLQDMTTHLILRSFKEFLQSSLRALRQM

C[C@@H]1C[C@H]2[C@@H]3CCC4=CC(=O)C=C[C@]4(C)[C@@]3(F)[C@@H](O)C[C@]2(C)[C@@]1(O)C(=O)CO [Dexamethasone, reference compound]
% Apoptosis Mean ± SEM ([1]; RPMI 8226 cells, DEX 10-6 alone): % 46 ± 4 | % Apoptosis Mean ± SEM ([1]; RPMI 8226 cells, DEX + IL-6 100 pg): % 27 ± 9 | level of apoptosis (cells undergoing apoptosis) ([1]; FIG. 1A, dexamethasone 1 microM, 48 hrs): 45% | level of apoptosis (cells undergoing apoptosis) ([1]; FIG. 1B, dexamethasone in the presence of IL-6): 20%

IL-6: 22-27 kDa secreted glycoprotein cytokine interleukin 6 [reference compound]
IL-6 concentration inhibiting dexamethasone-induced apoptosis ([1]; RPMI 8226 cells, dexamethasone 1 microM): higher than 100 ng/mL

cCLB8: chimerized form of the murine anti-IL-6 monoclonal antibody CLB-6/8 (Centocor)
circulating levels of sIL6R and sgp130 [2]: remained unchanged | serum IL-6 activity [2]: total blockage of serum IL-6 activity | % Apoptosis Mean ± SEM ([1]; RPMI 8226 cells, DEX + IL-6 + CNTO 328 100 ng): % 45 ± 11 | % Apoptosis Mean ± SEM ([1]; RPMI 8226 cells, DEX + IL-6 + CNTO 328 1 ug): % 54 ± 2.5 | neutralization of the inhibitory effect of IL-6 on dexamethasone-induced apoptosis ([1]; RPMI 8226 cells, P<0.02): neutralized the inhibitory effect of IL-6 on dexamethasone-induced apoptosis in a dose dependent manner | promotion of cellular apoptosis, combination versus single agents ([1]; combination of dexamethasone and cCLB8): superior to treatment with either agent alone | level of apoptosis (cells undergoing apoptosis) ([1]; FIG. 1C, dexamethasone in the presence of both IL-6 and cCLB8): 60%
